# Results from PMC6895180 (Nature Communications, 2019).
# Where “and” joins values, the source holds several entries; their conditions need not be identical. Equal entries are not always repeated.
# Experiments:
# T. brucei Squib 427 = assay: microbe, parasite or virus in culture; type: cell-based, Trypanosoma brucei brucei
# P2 transporter (TbAT1) = P2 transporter (TbAT1) (Trypanosoma brucei brucei, UniProt Q9Y0I0); assay: cell-based; settings: for Ki: P2 transporter Ki
# Protocol: Non-specific association of radiolabel with the cell pellet was determined using an identical incubation in the presence of saturating (1 mM) unlabelled adenosine.
# [1] = tested on: T. brucei BSF s427 wildtype cells; assay: Growth assays of T. brucei (trypanocidal/trypanostatic effect); type: cell-based, Trypanosoma brucei
# Protocol: Growth assays of T. brucei
# To test the effect of the novel adenosine analogues on the growth of T. brucei BSF, s427 wildtype cells were seeded at 1×10^5 cells mL-1 in 5 mL of HMI-9 medium with 10% FBS and treated with compounds […]
# cells were also incubated in drug-free medium under the same conditions. 2 μM of 2’-deoxycoformycin were added to all cultures to avoid any potential effect of serum adenosine deaminase on the activity of test compounds and cordycepin.1
# Cells were manually counted in Neubauer chambers at 0, 2, 4, 6, 8, 12, 24, 36 and 48 h after addition of […]
# the drugs. […]
# After 6 and 12 h after addition of drugs, approximately 2×10^6 cells were harvested from each group and applied to glass slides pre-treated with poly-L-lysine, left to settle for 5 min and fixed with 4% formaldehyde for 4 min. The formaldehyde was neutralised by addition of 100 mM glycine (20 min).
# Cells were washed once with PBS and blocked for 1 h with 1% BSA/0.2% Tween-20 in PBS. Cells were […]
# Sequence of P2 transporter (TbAT1) (Q9Y0I0 entry or part of it): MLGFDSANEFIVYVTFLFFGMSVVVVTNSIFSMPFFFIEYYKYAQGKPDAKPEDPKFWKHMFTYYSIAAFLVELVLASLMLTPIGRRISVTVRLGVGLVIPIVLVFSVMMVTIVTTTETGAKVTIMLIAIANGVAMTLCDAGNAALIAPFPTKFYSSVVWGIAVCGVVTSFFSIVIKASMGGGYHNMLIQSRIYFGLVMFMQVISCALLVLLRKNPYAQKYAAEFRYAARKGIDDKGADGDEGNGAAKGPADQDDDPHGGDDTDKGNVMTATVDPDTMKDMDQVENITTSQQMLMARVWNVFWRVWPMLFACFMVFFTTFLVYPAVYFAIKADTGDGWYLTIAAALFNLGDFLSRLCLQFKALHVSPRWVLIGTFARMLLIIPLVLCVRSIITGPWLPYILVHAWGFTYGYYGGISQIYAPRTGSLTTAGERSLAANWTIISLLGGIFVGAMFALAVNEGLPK
smiles,measurement,setting,value
"Nc1ncnc2c1c(Br)cn2[C@@H]1O[C@H](CO)[C@@H](O)[C@H]1O [Compound 8, 7-bromotubercidin]",EC50,"T. brucei Squib 427; Trypanosoma brucei, Alamar blue cell viability assay, mean and SEM, read-out: T. b. brucei EC50",1.2 ± 0.3 µM
same,SI (MRC/T.b. brucei),T. brucei Squib 427; selectivity index,10
same,P2 transporter ΔG^0,P2 transporter (TbAT1); Gibbs free energy from −RT ln(Ki),-7.77 kcal/mol
same,IC50,"P2 transporter (TbAT1); P2 transporter IC50, single experiments, [L] 0.033 or 0.1 per experiment",2.52 µM and 3.86 µM and 4.39 µM
same,Ki,"P2 transporter (TbAT1); AVG, source data",3.02 µM
same,Ki,"P2 transporter (TbAT1); single experiments, Cheng–Prusoff from IC50",2.11 µM and 3.24 µM and 3.69 µM
same,P2 transporter δ(ΔG^0),P2 transporter (TbAT1); in comparison to adenosine,0.789 kcal/mol
same,AVG of cells/mL,"[1]; 2xEC50, 2 h, experiment 1",142500 cells/mL
same,Cells/mL,"[1]; 2xEC50, 2 h, experiment 1",127500 Cells/mL and 157500 Cells/mL
same,Counts,"[1]; 2xEC50, 2 h, experiment 1",51 and 63
same,AVG of cells/mL,"[1]; 2xEC50, 2 h, experiment 2",155000 cells/mL
same,Cells/mL,"[1]; 2xEC50, 2 h, experiment 2",145000 Cells/mL and 165000 Cells/mL
same,Counts,"[1]; 2xEC50, 2 h, experiment 2",58 and 66
same,AVG of cells/mL,"[1]; 2xEC50, 4 h, experiment 1",146250 cells/mL
same,Cells/mL,"[1]; 2xEC50, 4 h, experiment 1",140000 Cells/mL and 152500 Cells/mL
same,Counts,"[1]; 2xEC50, 4 h, experiment 1",61 and 56
same,AVG of cells/mL,"[1]; 2xEC50, 4 h, experiment 2",162500 cells/mL
same,Cells/mL,"[1]; 2xEC50, 4 h, experiment 2",140000 Cells/mL and 185000 Cells/mL
same,Counts,"[1]; 2xEC50, 4 h, experiment 2",74 and 56
same,AVG of cells/mL,"[1]; 2xEC50, 6 h, experiment 1",147500 cells/mL
same,Cells/mL,"[1]; 2xEC50, 6 h, experiment 1",132500 Cells/mL and 162500 Cells/mL
same,Counts,"[1]; 2xEC50, 6 h, experiment 1",53 and 65
same,AVG of cells/mL,"[1]; 2xEC50, 6 h, experiment 2",175000 cells/mL
same,Cells/mL,"[1]; 2xEC50, 6 h, experiment 2",175000 Cells/mL
same,Counts,"[1]; 2xEC50, 6 h, experiment 2",70
same,AVG of cells/mL,"[1]; 2xEC50, 8 h, experiment 1",175000 cells/mL
same,Cells/mL,"[1]; 2xEC50, 8 h, experiment 1",185000 Cells/mL and 165000 Cells/mL
same,Counts,"[1]; 2xEC50, 8 h, experiment 1",74 and 66
same,AVG of cells/mL,"[1]; 2xEC50, 8 h, experiment 2",166250 cells/mL
same,Cells/mL,"[1]; 2xEC50, 8 h, experiment 2",180000 Cells/mL and 152500 Cells/mL
same,Counts,"[1]; 2xEC50, 8 h, experiment 2",72 and 61
same,AVG of cells/mL,"[1]; 2xEC50, 12 h, experiment 1",185000 cells/mL
same,Cells/mL,"[1]; 2xEC50, 12 h, experiment 1",185000 Cells/mL
same,Counts,"[1]; 2xEC50, 12 h, experiment 1",74
same,AVG of cells/mL,"[1]; 2xEC50, 12 h, experiment 2",181250 cells/mL
same,Cells/mL,"[1]; 2xEC50, 12 h, experiment 2",190000 Cells/mL and 172500 Cells/mL
same,Counts,"[1]; 2xEC50, 12 h, experiment 2",76 and 69
same,AVG of cells/mL,"[1]; 2xEC50, 24 h, experiment 1",211250 cells/mL
same,Cells/mL,"[1]; 2xEC50, 24 h, experiment 1",227500 Cells/mL and 195000 Cells/mL
same,Counts,"[1]; 2xEC50, 24 h, experiment 1",91 and 78
same,AVG of cells/mL,"[1]; 2xEC50, 24 h, experiment 2",167500 cells/mL
same,Cells/mL,"[1]; 2xEC50, 24 h, experiment 2",165000 Cells/mL and 170000 Cells/mL
same,Counts,"[1]; 2xEC50, 24 h, experiment 2",66 and 68
same,AVG of cells/mL,"[1]; 2xEC50, 36 h, experiment 1",350000 cells/mL
same,Cells/mL,"[1]; 2xEC50, 36 h, experiment 1",322500 Cells/mL and 377500 Cells/mL
same,Counts,"[1]; 2xEC50, 36 h, experiment 1",129 and 151
same,AVG of cells/mL,"[1]; 2xEC50, 36 h, experiment 2",212500 cells/mL
same,Cells/mL,"[1]; 2xEC50, 36 h, experiment 2",220000 Cells/mL and 205000 Cells/mL
same,Counts,"[1]; 2xEC50, 36 h, experiment 2",88 and 82
same,AVG of cells/mL,"[1]; 2xEC50, 48 h, experiment 1",365000 cells/mL
same,Cells/mL,"[1]; 2xEC50, 48 h, experiment 1",365000 Cells/mL
same,Counts,"[1]; 2xEC50, 48 h, experiment 1",146
same,AVG of cells/mL,"[1]; 2xEC50, 48 h, experiment 2",152500 cells/mL
same,Cells/mL,"[1]; 2xEC50, 48 h, experiment 2",142500 Cells/mL and 162500 Cells/mL
same,Counts,"[1]; 2xEC50, 48 h, experiment 2",57 and 65
same,effect on T. brucei bloodstream forms in culture (cidal/static),[1]; 2× and 5× EC50,trypanostatic
same,AVG of cells/mL,"[1]; 5xEC50, 2 h, experiment 1",118750 cells/mL
same,Cells/mL,"[1]; 5xEC50, 2 h, experiment 1",130000 Cells/mL and 107500 Cells/mL
same,Counts,"[1]; 5xEC50, 2 h, experiment 1",52 and 43
same,AVG of cells/mL,"[1]; 5xEC50, 2 h, experiment 2",130000 cells/mL
same,Cells/mL,"[1]; 5xEC50, 2 h, experiment 2",137500 Cells/mL and 122500 Cells/mL
same,Counts,"[1]; 5xEC50, 2 h, experiment 2",55 and 49
same,AVG of cells/mL,"[1]; 5xEC50, 4 h, experiment 1",138750 cells/mL
same,Cells/mL,"[1]; 5xEC50, 4 h, experiment 1",132500 Cells/mL and 145000 Cells/mL
same,Counts,"[1]; 5xEC50, 4 h, experiment 1",58 and 53
same,AVG of cells/mL,"[1]; 5xEC50, 4 h, experiment 2",130000 cells/mL
same,Cells/mL,"[1]; 5xEC50, 4 h, experiment 2",125000 Cells/mL and 135000 Cells/mL
same,Counts,"[1]; 5xEC50, 4 h, experiment 2",54 and 50
same,AVG of cells/mL,"[1]; 5xEC50, 6 h, experiment 1",186250 cells/mL
same,Cells/mL,"[1]; 5xEC50, 6 h, experiment 1",195000 Cells/mL and 177500 Cells/mL
same,Counts,"[1]; 5xEC50, 6 h, experiment 1",78 and 71
same,AVG of cells/mL,"[1]; 5xEC50, 6 h, experiment 2",162500 cells/mL
same,Cells/mL,"[1]; 5xEC50, 6 h, experiment 2",155000 Cells/mL and 170000 Cells/mL
same,Counts,"[1]; 5xEC50, 6 h, experiment 2",62 and 68
same,AVG of cells/mL,"[1]; 5xEC50, 8 h, experiment 1",160000 cells/mL
same,Cells/mL,"[1]; 5xEC50, 8 h, experiment 1",162500 Cells/mL and 157500 Cells/mL
same,Counts,"[1]; 5xEC50, 8 h, experiment 1",65 and 63
same,AVG of cells/mL,"[1]; 5xEC50, 8 h, experiment 2",125000 cells/mL
same,Cells/mL,"[1]; 5xEC50, 8 h, experiment 2",122500 Cells/mL and 127500 Cells/mL
same,Counts,"[1]; 5xEC50, 8 h, experiment 2",49 and 51
same,AVG of cells/mL,"[1]; 5xEC50, 12 h, experiment 1",176250 cells/mL
same,Cells/mL,"[1]; 5xEC50, 12 h, experiment 1",190000 Cells/mL and 162500 Cells/mL
same,Counts,"[1]; 5xEC50, 12 h, experiment 1",76 and 65
same,AVG of cells/mL,"[1]; 5xEC50, 12 h, experiment 2",166250 cells/mL
same,Cells/mL,"[1]; 5xEC50, 12 h, experiment 2",175000 Cells/mL and 157500 Cells/mL
same,Counts,"[1]; 5xEC50, 12 h, experiment 2",70 and 63
same,AVG of cells/mL,"[1]; 5xEC50, 24 h, experiment 1",146250 cells/mL
same,Cells/mL,"[1]; 5xEC50, 24 h, experiment 1",135000 Cells/mL and 157500 Cells/mL
same,Counts,"[1]; 5xEC50, 24 h, experiment 1",54 and 63
same,AVG of cells/mL,"[1]; 5xEC50, 24 h, experiment 2",126250 cells/mL
same,Cells/mL,"[1]; 5xEC50, 24 h, experiment 2",115000 Cells/mL and 137500 Cells/mL
same,Counts,"[1]; 5xEC50, 24 h, experiment 2",46 and 55
same,AVG of cells/mL,"[1]; 5xEC50, 36 h, experiment 1",146250 cells/mL
same,Cells/mL,"[1]; 5xEC50, 36 h, experiment 1",147500 Cells/mL and 145000 Cells/mL
same,Counts,"[1]; 5xEC50, 36 h, experiment 1",59 and 58
same,AVG of cells/mL,"[1]; 5xEC50, 36 h, experiment 2",138750 cells/mL
same,Cells/mL,"[1]; 5xEC50, 36 h, experiment 2",145000 Cells/mL and 132500 Cells/mL
same,Counts,"[1]; 5xEC50, 36 h, experiment 2",58 and 53
same,AVG of cells/mL,"[1]; 5xEC50, 48 h, experiment 1",112500 cells/mL
same,Cells/mL,"[1]; 5xEC50, 48 h, experiment 1",112500 Cells/mL
same,Counts,"[1]; 5xEC50, 48 h, experiment 1",45
same,AVG of cells/mL,"[1]; 5xEC50, 48 h, experiment 2",75000 cells/mL
same,Cells/mL,"[1]; 5xEC50, 48 h, experiment 2",65000 Cells/mL and 85000 Cells/mL
same,Counts,"[1]; 5xEC50, 48 h, experiment 2",26 and 34
